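96-well plates; 48 h exposure; 5 concentrations. Endpoints by linear interpolation between flanking doses. Not reached: highest tested concentration assigned. TGI is the concentration that stops growth completely.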
Each compound was assayed on RXF-631 renal (assay: NCI tumour cell line growth inhibition, 48 h).

Row | Compound | TGI
1 | COC(=O)C(C(=O)C(=O)Nc1ccc(C)cc1C)c1nc2ccc([N+](=O)[O-])cc2[nH]c1=O (stereo not given) | > 100 µM
2 | COC(=O)NN=C1C(C)(C)C(=NNC(=O)OC)C1(C)C | > 100 µM
3 | Oc1cccc2nc3cc(CN4CCOCC4)c(CN4CCOCC4)cc3nc12 | > 100 µM
4 | CC(=O)NNc1nc(C)c(C(/C=C/c2ccc(Cl)cc2)=N/NC(=S)NN)s1 | > 100 µM
5 | CN(C)C(=S)/N=c1\ssc(=S)n1Cc1ccccn1 | > 100 µM

Source: PubChem BioAssay (NCI)
